Data taken from patent US11667602B2, “Compounds and their use” (AstraZeneca AB, priority 2020, dated 2023).
pEC50: −log10 of the molar value.

Target: T1, human RXFP1 (Homo sapiens, UniProt Q9HBX9)
T1 sequence (Q9HBX9 1-757): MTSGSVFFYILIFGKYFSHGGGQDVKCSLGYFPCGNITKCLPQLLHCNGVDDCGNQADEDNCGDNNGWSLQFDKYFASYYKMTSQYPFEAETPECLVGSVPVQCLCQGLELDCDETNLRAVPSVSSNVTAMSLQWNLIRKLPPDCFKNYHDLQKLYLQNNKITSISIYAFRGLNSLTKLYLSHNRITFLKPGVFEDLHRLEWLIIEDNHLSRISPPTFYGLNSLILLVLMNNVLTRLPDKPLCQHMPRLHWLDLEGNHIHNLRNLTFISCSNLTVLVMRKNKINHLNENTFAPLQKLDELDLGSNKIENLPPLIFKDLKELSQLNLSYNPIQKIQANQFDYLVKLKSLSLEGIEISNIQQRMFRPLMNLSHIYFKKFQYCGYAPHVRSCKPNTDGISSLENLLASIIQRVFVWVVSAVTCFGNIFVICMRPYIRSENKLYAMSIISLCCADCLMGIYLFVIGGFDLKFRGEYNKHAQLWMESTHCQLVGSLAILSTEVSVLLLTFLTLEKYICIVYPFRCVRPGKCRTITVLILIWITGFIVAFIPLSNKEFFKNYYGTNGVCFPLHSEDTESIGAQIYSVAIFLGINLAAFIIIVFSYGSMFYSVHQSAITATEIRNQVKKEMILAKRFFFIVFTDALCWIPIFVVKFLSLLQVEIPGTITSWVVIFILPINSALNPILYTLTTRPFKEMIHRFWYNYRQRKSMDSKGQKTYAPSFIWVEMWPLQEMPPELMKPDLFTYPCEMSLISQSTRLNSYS
Test: RXFP1 Hu cAMP (Test A)
Assay type: cell-based
Set-up: expressed in transfected cells; host or cells: Jump-In T-REx CHO-K1 cells (ThermoFisher), induced with 10 ng/ml doxycycline for 24 h
Conditions: RXFP1 Hu cAMP; for pEC50: read-out: Test A EC50
Description: To screen for modulators of hRXFP1, an assay identifying compounds that stimulate cAMP production via the Gs-coupled hRXFP1 receptor was used. cAMP HiRange HTRF kit (available from CisBio Bioassays, France; catalogue number 62AM6PEJ) was employed in large according to manufacturer's recommendations for detection of cAMP. The HTRF method is a competitive immunoassay between native cAMP produced by cells and cAMP labeled with the dye d2. The tracer binding is visualized with a cryptate labeled antibody for cAMP and the signal is thus inversely proportional to the amount of produced cAMP.
Cells: Jump-In™ T-REx™ CHO-K1 Cells (ThermoFisher) stably transfected with human RXFP1 was employed. Cells were induced to express human RXFP1 by treatment with 10 ng/ml doxycycline for 24 h. Cells were then cryopreserved for long term storage.
HTRF detection reagents: cAMP-d2 and anti-cAMP cryptate reconstituted according to CisBio instructions were diluted 1:40 in lysis buffer provided with the HTRF-kit.
3. 4 μL assay buffer with 1 mM IBMX (0.5 mM final concentration) to block phosphodiesterases was added with Multidrop Combi (ThermoFisher).
6. 4 μL cAMP-d2 in lysis buffer was added with Multidrop Combi.
7. 4 μL anti-cAMP cryptate in lysis buffer was added with Multidrop Combi
8. 2 h incubation at room temperature
Using a cAMP standard curve, HTRF data was converted to amount cAMP produced in the samples which was subsequentially used for calculation of concentration responses. Concentration response data were fitted with a four parameter logistic fit, the Hill equation. The results from the assay are reported in Table 36 as EC50 (μM) and Sinf (%).
Where the assay was run multiple times for the same compound, the geometric mean is reported.
Sinf is the fitted activity level, efficacy, at infinite concentration of test compound. To facilitate comparison of efficacy data, efficacy was normalized to % effect of the response stimulated by a saturating concentration of relaxin (1 nM). Where the assay was run multiple times for the same compound, the arithmetic mean is reported.

Structure (SMILES) | Test A Sinf [%] | pEC50
COc1cc(C#N)c(O[C@H]2CC[C@@](C)(C(=O)O)CC2)cc1C(=O)N[C@@H]1CC[C@@H]1C(=O)NCC1(C)CCC1 (racemic) [Example 348] | 101 | 6.25
COc1cc(F)c(O[C@H]2CC[C@@](C)(C(=O)O)CC2)cc1C(=O)N[C@@H]1COCC[C@@H]1C(=O)Nc1ccc(F)c(S(F)(F)(F)(F)F)c1 (racemic) [Example 349] | 113 | 5.74
COc1cc(F)c(O[C@H]2CC[C@@](C)(C(=O)O)CC2)cc1C(=O)N[C@@H]1COC[C@@H]1C(=O)NCC1(C)CCC1 (racemic) [Example 350] | 97 | 5.41
COc1cc(F)c(O[C@H]2CC[C@@](C)(C(=O)O)CC2)cc1C(=O)N[C@@H]1CCCCC[C@@H]1C(=O)Nc1cccc(S(=O)(=O)C(F)(F)F)c1 (racemic) [Example 354] | 95 | 7.96
COc1cc(F)c(O[C@H]2CC[C@@](C)(C(=O)O)CC2)cc1C(=O)N[C@H]1[C@@H](C(=O)NCC2(C)CCC2)[C@@H]2CC[C@H]1O2 (racemic) [Example 358] | 99 | 5.29
COc1cc(F)c(O[C@H]2CC[C@@](C)(C(=O)O)CC2)cc1C(=O)N[C@@H]1[C@@H](OC)CC[C@@H]1C(=O)Nc1cccc(S(=O)(=O)C(F)(F)F)c1 (racemic) [Example 359] | 91 | 6.77
COc1cc(F)c(O[C@H]2CC[C@@](CO)(C(=O)O)CC2)cc1C(=O)N[C@@H]1[C@@H]2CC[C@@H](C2)[C@@H]1C(=O)Nc1cccc(S(=O)(=O)C(F)(F)F)c1 (racemic) [Example 366] | 103 | 8.66
COc1cc(F)c(O[C@H]2CC[C@@](C)(C(=O)O)CC2)cc1C(=O)N[C@@H]1[C@@H]2CC[C@@H](C2)[C@@H]1C(=O)Nc1cccc(S(=O)(=O)C(F)(F)F)c1 (racemic) [Example 367] | 110 | 8.49
COc1cc(F)c(O[C@H]2CC[C@@](C)(C(=O)O)CC2)cc1C(=O)N[C@@H]1[C@@H]2CC[C@@H](C2)[C@@H]1C(=O)Nc1ccc(F)c(S(F)(F)(F)(F)F)c1 (racemic) [Example 371] | 125 | 8.96
COc1cc(F)c(O[C@H]2CC[C@@](C)(C(=O)O)CC2)cc1C(=O)N[C@@H]1[C@@H](O)[C@@H](O)C[C@@H]1C(=O)Nc1cccc(S(=O)(=O)C(F)(F)F)c1 (racemic) [Example 394, (1R,4s)-4-(5-(((1SR,2RS,3SR,5SR)-2,3-Dihydroxy-5-((3-((trifluoromethyl)sulfonyl)phenyl)carbamoyl)cyclopentyl)carbamoyl)-2-fluoro-4-methoxyphenoxy)-1-methylcyclohexane-1-carboxylic acid] | – | < 4.40
COc1cc(F)c(O[C@H]2CC[C@@](C)(C(=O)O)CC2)cc1C(=O)N[C@@H]1[C@H]2OCO[C@H]2C[C@@H]1C(=O)Nc1cccc(S(=O)(=O)C(F)(F)F)c1 (racemic) [Example 395, (1R,4s)-4-(2-Fluoro-4-methoxy-5-(((3aRS,4SR,5SR,6aSR)-5-((3-((trifluoromethyl)sulfonyl)phenyl)carbamoyl)tetrahydro-4H-cyclopenta[d][1,3]dioxol-4-yl)carbamoyl)phenoxy)-1-methylcyclohexane-1-carboxylic acid] | 101 | 7.51
COc1cc(F)c(O[C@H]2CC[C@@](C)(C(=O)O)CC2)cc1C(=O)N[C@H]1[C@@H](C(=O)Nc2cccc(S(=O)(=O)C(F)(F)F)c2)CC[C@H]1OC (racemic) [Example 397, (1R,4s)-4-(2-Fluoro-4-methoxy-5-(((1SR,2RS,5SR)-2-methoxy-5-((3-((trifluoromethyl)sulfonyl)phenyl)carbamoyl)cyclopentyl)carbamoyl)phenoxy)-1-methylcyclohexane-1-carboxylic acid] | – | < 4.40
COc1cc(F)c(O[C@H]2CC[C@@](O)(C(=O)O)CC2)cc1C(=O)N[C@@H]1[C@@H]2CC[C@@H](C2)[C@@H]1C(=O)Nc1cccc(S(=O)(=O)C(F)(F)F)c1 (racemic) [Example 422, (1R,4r)-4-(2-Fluoro-4-methoxy-5-(((1RS,2RS,3SR,4SR)-3-((3-((trifluoromethyl)sulfonyl)phenyl)carbamoyl)bicyclo[2.2.1]heptan-2-yl)carbamoyl)phenoxy)-1-hydroxycyclohexane-1-carboxylic acid] | 102 | 7.07
COc1cc(F)c(O[C@@H]2C[C@@H]3[C@H](C2)[C@H]3C(=O)O)cc1C(=O)N[C@@H]1[C@H]2CC[C@H](C2)[C@@H]1C(=O)NCC1(C)CCC1 (racemic) [Example 425, (1RS,3SR,5SR,6RS)-3-(2-Fluoro-4-methoxy-5-(((1S,2R,3S,4R)-3-(((1-methylcyclobutyl)methyl)carbamoyl)bicyclo[2.2.1]heptan-2-yl)carbamoyl)phenoxy)bicyclo[3.1.0]hexane-6-carboxylic acid] | 78 | –
COc1cc(F)c(O[C@H]2C[C@@H]3[C@H](C2)[C@H]3C(=O)O)cc1C(=O)N[C@@H]1[C@H]2CC[C@H](C2)[C@@H]1C(=O)NCC1(C)CCC1 (racemic) [Example 426, (1RS,3SR,5SR,6RS)-3-(2-Fluoro-4-methoxy-5-(((1S,2R,3S,4R)-3-(((1-methylcyclobutyl)methyl)carbamoyl)bicyclo[2.2.1]heptan-2-yl)carbamoyl)phenoxy)bicyclo[3.1.0]hexane-6-carboxylic acid] | – | < 4.40
COc1ccc(Oc2ccc(C(=O)O)cc2)cc1C(=O)N[C@H]1[C@@H](C(=O)Nc2cccc(S(=O)(=O)C(F)(F)F)c2)[C@@H]2C=C[C@H]1C2 (racemic) [Example 427] | 86 | 6.17
COc1ccc(Oc2cccc(C(=O)O)c2)cc1C(=O)N[C@H]1[C@@H](C(=O)Nc2cccc(S(=O)(=O)C(F)(F)F)c2)[C@@H]2C=C[C@H]1C2 (racemic) [Example 428] | 80 | 5.29
COc1ccc(Oc2ccccc2C(=O)O)cc1C(=O)N[C@H]1[C@@H](C(=O)Nc2cccc(S(=O)(=O)C(F)(F)F)c2)[C@@H]2C=C[C@H]1C2 (racemic) [Example 429] | – | < 4.40
COc1cc(F)c(O[C@@H]2CC[C@H](C(=O)O)OC2)cc1C(=O)NC1[C@H]2CC[C@H](C2)[C@@H]1C(=O)Nc1cccc(S(=O)(=O)C(F)(F)F)c1 (mixture of isomers) [Example 442] | 103 | 6.24
COc1cc(F)c(OCc2ccccc2C(=O)O)cc1C(=O)N[C@H]1[C@@H](C(=O)Nc2cccc(S(=O)(=O)C(F)(F)F)c2)[C@@H]2C=C[C@H]1C2 (racemic) [Example 448, rac-2-((2-Fluoro-4-methoxy-5-(((1R,2R,3S,4S)-3-((3-((trifluoromethyl)sulfonyl)phenyl)carbamoyl)bicyclo[2.2.1]hept-5-en-2-yl)carbamoyl)phenoxy)methyl)benzoic acid] | 77 | 5.59
COc1cc(F)c(OCc2cccc(C(=O)O)c2)cc1C(=O)N[C@H]1[C@@H](C(=O)Nc2cccc(S(=O)(=O)C(F)(F)F)c2)[C@@H]2C=C[C@H]1C2 (racemic) [Example 449] | 108 | 5.80
COc1cc(F)c(OCc2ccc(C(=O)O)cc2)cc1C(=O)N[C@H]1[C@@H](C(=O)Nc2cccc(S(=O)(=O)C(F)(F)F)c2)[C@@H]2C=C[C@H]1C2 (racemic) [Example 450] | 107 | 6.21
COc1cc(F)c(OCc2ccc(C(C)(C)C(=O)O)cc2)cc1C(=O)N[C@H]1[C@@H](C(=O)Nc2cccc(S(=O)(=O)C(F)(F)F)c2)[C@@H]2C=C[C@H]1C2 (racemic) [Example 452] | 104 | 6.01
